Earlier results on one compound are cited in patent US20250114486A1, “MARKED FATTY ACID DERIVATIVE, PRECURSOR COMPOUND THEREOF, AND USE THEREOF IN CONTRAST AGENT” (BEIJING NORMAL UNIVERSITY, priority 2022, published 2025).

Read-outs that look alike come from different tables or passages of the source.

The conditions of this data set: rats, reference 4, cited from earlier work.

With `CC(CCCCCCCCCCCCc1ccc([123I])cc1)CC(=O)O` (centres unmarked) [[^123I]BMIPP], the Heart-to-Lungs ratio is 3.16 (30 min after injection), 3.52 (60 min after injection) and 2.49 (240 min after injection). Moreover, the Heart-to-Blood ratio was 2.27 (30 min post-injection), 2.51 (60 min post-injection) and 2.01 (240 min post-injection). In addition, the “absolute myocardial uptake value” (30 min post-injection) is on record as 3.63 % ID/g, the “absolute myocardial uptake value” (60 min post-injection) is 4.26 % ID/g and the “absolute myocardial uptake value” (240 min post-injection) was 2.27 % ID/g. Moreover, the Heart-to-Liver ratio is, setting by setting: (60 min after injection) 2.22; (240 min after injection) 2.39.
